Legend:
[1] = Evaluation of compound pharmacokinetics in SD rats (intravenous injection and oral administration); format: in vivo; conditions: male, Sprague Dawley, rat, plasma, 2 mg/kg, 2 mpk; for clearance: read-out: Clearance rate; for AUC: read-out: Drug concentration integral: AUC; for half-life: read-out: Half-life period: T1/2 (converted); for bioavailability: oral, read-out: Fraction of bioavailability: F
Experimental: Aim of the experiments: To test pharmacokinetics of the compounds in SD rats. Experimental Materials: Sprague Dawley rats (male, 200-300 g, 7-9 weeks old, Shanghai Slack) Experimental Procedure: The rodent pharmacokinetic characteristics of the compounds after intravenous injection and oral administration were tested by the standard protocol. In the experiments, the transparent solution was prepared with the compounds to be test. The rats were administered single intravenous injection and oral administration. The solvent for intravenous injection and oral administration was aqueous hydroxypropyl β-cyclodextrin solution or normal saline solution with a certain concentration. Collect the blood samples within 24 hours and centrifuge at 3000 G for 15 minutes. Separate the supernatant to obtain the plasma samples. A volume of acetonitrile solution containing internal standard was added 4 times as the sample to precipitate the protein. The supernatant was obtained after centrifuge. An equal volume of water was added and then centrifuge again to collect the supernatant. The LC-MS/MS method was used to quantitatively analyze the blood drug concentration and the pharmacokinetic parameters such as peak concentration, peak time, clearance rate, half-life period, area under the curve of the drug concentration, and fraction of bioavailability, etc. were calculated.

[2] = molecular target: S1P1 receptor (Homo sapiens, UniProt P21453); experiment: S1P1 receptor agonistic activity (PathHunter cell strain, chemiluminescent signal detection); format: cell-based; conditions: PathHunter cells, agonist mode, 37° C. 90-180 minutes
Experimental: Test Method: […] Cell Processing i) Thaw the PathHunter cell strain according to the standard procedures. ii) Seed the cell in the 20 μL 384-microwell plate and incubate at 37° C. for an appropriate period. 2. Agonist i) For agonist testing, cells were incubated with the sample to be test to initiate a reaction; ii) The stock solution to be tested has been diluted 5 folds to be a buffer solution; iii) Inject the 5-fold diluted solution (5 μL) into the cells and incubate at 37° C. for 90-180 minutes. […] 3. Signal Detection i) Add 12.5 μL or 15 μL PathHunter detection reagent (50 vol. %) in one portion. Then, incubate at room temperature for 1 hour and generate the detection signal; ii) Use PerkinElmer Evision™ instrument to read the microwell plate to proceed with chemiluminescent signal detection. 4. Data Analysis i) Use CBIS data analysis system for the compound activity analysis. ii) Calculation formula: […]

Sequence of S1P1 receptor (P21453 whole entry): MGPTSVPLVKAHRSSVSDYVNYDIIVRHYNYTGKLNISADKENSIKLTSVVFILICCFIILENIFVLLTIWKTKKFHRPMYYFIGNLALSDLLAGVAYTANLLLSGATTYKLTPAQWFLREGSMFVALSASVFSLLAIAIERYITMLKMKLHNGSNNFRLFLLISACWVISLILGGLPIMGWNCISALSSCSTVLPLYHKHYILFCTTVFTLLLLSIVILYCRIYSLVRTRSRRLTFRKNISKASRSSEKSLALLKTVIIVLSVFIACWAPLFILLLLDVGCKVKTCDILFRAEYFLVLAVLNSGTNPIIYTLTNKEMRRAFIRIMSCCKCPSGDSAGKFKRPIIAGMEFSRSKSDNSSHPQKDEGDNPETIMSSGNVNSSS

Row | Structure (SMILES) | EC50 [2] [nM] | other results
1 | CC(C)Oc1ccc(-c2ncc(-c3cccc4c3CC3CC(=O)N(CCO)C43)o2)cc1C#N (stereo not shown) [Example 4] | < 10 | –
2 | O=C1CC2Cc3c(-c4noc(-c5ccc(OC(F)F)cc5)n4)cccc3C2N1CCO (stereo not shown) [Example 16] | > 100 | –
3 | N#Cc1cccc(-c2nc(-c3cccc4c3CC3CC(=O)N(CCO)C43)no2)c1 (stereo not shown) [Example 17] | > 100 | –
4 | COc1ccc(-c2nc(-c3cccc4c3CC3CC(=O)N(CCO)C43)no2)cc1 (stereo not shown) [Example 18] | > 100 | –
5 | O=C1CC2Cc3c(-c4noc(-c5ccc(OC(F)(F)F)cc5)n4)cccc3C2N1CCO (stereo not shown) [Example 19] | > 100 | –
6 | CC(C)Oc1cccc(-c2nc(-c3cccc4c3CC3CC(=O)N(CCO)C43)no2)c1 (stereo not shown) [Example 20] | > 100 | –
7 | O=C1CC2Cc3c(-c4noc(-c5ccc(OC6CC6)cc5)n4)cccc3C2N1CCO (stereo not shown) [Example 21] | > 100 | –
8 | CC(C)Oc1ccccc1-c1nc(-c2cccc3c2CC2CC(=O)N(CCO)C32)no1 (stereo not shown) [Example 22] | > 100 | –
9 | O=C1CC2Cc3c(-c4noc(-c5ccc(OCC6CC6)cc5)n4)cccc3C2N1CCO (stereo not shown) [Example 23] | > 100 | –
10 | COCOc1ccc(-c2nc(-c3cccc4c3CC3CC(=O)N(CCO)C43)no2)cc1 (stereo not shown) [Example 24] | > 100 | –
11 | CN(C)CCOc1ccc(-c2nc(-c3cccc4c3CC3CC(=O)N(CCO)C43)no2)cc1 (stereo not shown) [Example 28] | > 100 | –
12 | Cc1nc(C)c(-c2nc(-c3cccc4c3CC3CC(=O)N(CCO)C43)no2)o1 (stereo not shown) [Example 29] | > 100 | –
13 | CCCc1nnsc1-c1nc(-c2cccc3c2CC2CC(=O)N(CCO)C32)no1 (stereo not shown) [Example 30] | > 100 | –
14 | O=C1CC2Cc3c(-c4noc(-c5nc6ccccn6c5F)n4)cccc3C2N1CCO (stereo not shown) [Example 31] | > 100 | –
15 | O=C1CC2Cc3c(-c4noc(-c5csc(-c6ccccc6)n5)n4)cccc3C2N1CCO (stereo not shown) [Example 32] | > 100 | –
16 | CN1CCc2nc(-c3nc(-c4cccc5c4CC4CC(=O)N(CCO)C54)no3)sc2C1 (stereo not shown) [Example 33] | > 100 | –
17 | CC(C)c1ncc(-c2nc(-c3cccc4c3CC3CC(=O)N(CCO)C43)no2)s1 (stereo not shown) [Example 34] | > 100 | –
18 | O=C1CC2Cc3c(-c4noc(-c5cnc6ncccn56)n4)cccc3C2N1CCO (stereo not shown) [Example 35 Compound 35-2] | > 100 | –
19 | O=C1CC2Cc3c(-c4noc(-c5cn6cccnc6n5)n4)cccc3C2N1CCO (stereo not shown) [Example 35 Compound 35-3] | > 100 | –
20 | O=C1CC2Cc3c(-c4noc(-c5cn6c(n5)CCCC6)n4)cccc3C2N1CCO (stereo not shown) [Example 36] | > 100 | –
21 | O=C1CC2Cc3c(-c4noc(-c5cc(-c6nccs6)on5)n4)cccc3C2N1CCO (stereo not shown) [Example 37] | > 100 | –
22 | O=C1CC2Cc3c(-c4noc(-c5cn(Cc6ccccc6)nn5)n4)cccc3C2N1CCO (stereo not shown) [Example 38] | > 100 | –
23 | CC(C)Oc1ccc(-c2nc(-c3cccc4c3CC3CC(=O)N(CCO)C43)no2)cc1OCCN(C)C (stereo not shown) [Example 41] | > 100 | –
24 | CC(C)Oc1ccc(-c2nc(-c3cccc4c3CC3CC(=O)N(CCO)C43)no2)c(C#N)c1 (stereo not shown) [Example 42] | > 100 | –
25 | CC(C)Oc1ccc(-c2nc(-c3cccc4c3C[C@@H]3CC(=O)N([C@@H](CO)C(C)C)C43)no2)cc1C#N (stereo partly shown) [Example 55] | 10 to 100 | –

More lines, main results first:

Row | EC50 [2] [nM] | Structure (SMILES) | other results
26 | < 10 | CC(C)Oc1ccc(-c2nc(-c3cccc4c3C[C@@H]3OC(=O)N(CCO)[C@H]43)no2)cc1C#N (relative stereo) [Example 50] | clearance [1]: 6.59 mL/min/kg; AUC [1]: 8.52 µM·h; half-life [1]: 4.82 h; bioavailability [1]: 72.4%
27 | < 10 | CC(C)Oc1ccc(-c2nc(-c3cccc4c3CC3CC(=O)N(CCO)C43)no2)cc1C#N (stereo not shown) [Example 1 Mixture] | –
28 | < 10 | CC(C)Oc1ccc(-c2ncc(-c3cccc4c3CC3CC(=O)N(CCO)C43)s2)cc1C#N (stereo not shown) [Example 2] | –
29 | < 10 | CC(C)Oc1ccc(-c2nnc(-c3cccc4c3CC3CC(=O)N(CCO)C43)s2)cc1C#N (stereo not shown) [Example 3] | –
30 | < 10 | CC(C)Oc1ccc(-c2ccc(-c3cccc4c3CC3CC(=O)N(CCO)C43)s2)cc1C#N (stereo not shown) [Example 5] | –
31 | < 10 | CC(C)Oc1ccc(-c2nc(-c3cccc4c3CC3CC(=O)N(CCO)C43)ns2)cc1C#N (stereo not shown) [Example 6] | –
32 | < 10 | CC(C)Oc1ccc(-c2nsc(-c3cccc4c3CC3CC(=O)N(CCO)C43)n2)cc1C#N (stereo not shown) [Example 7] | –
33 | < 10 | CC(C)Oc1ccc(-c2nc(-c3cccc4c3CC3CC(=O)N(CCC(=O)O)C43)no2)cc1C#N (stereo not shown) [Example 9] | –
34 | < 10 | CC(C)Oc1ccc(-c2nc(-c3cccc4c3CC3CC(=O)N(CCCC(=O)O)C43)no2)cc1C#N (stereo not shown) [Example 10] | –
35 | < 10 | CC(C)Oc1ccc(-c2nc(-c3cccc4c3CC3CC(=O)N(CCCCC(=O)O)C43)no2)cc1C#N (stereo not shown) [Example 11] | –
36 | < 10 | COCCN1C(=O)CC2Cc3c(-c4noc(-c5ccc(OC(C)C)c(C#N)c5)n4)cccc3C21 (stereo not shown) [Example 12] | –
37 | < 10 | CC(C)Oc1ccc(-c2nc(-c3cccc4c3CC3CC(=O)N(CCS(C)(=O)=O)C43)no2)cc1C#N (stereo not shown) [Example 13] | –
38 | < 10 | CC(C)Oc1ccc(-c2nc(-c3cccc4c3CC3CC(=O)N(CC(O)CO)C43)no2)cc1C#N (stereo not shown) [Example 14] | clearance [1]: 7.22 mL/min/kg; AUC [1]: 5.76 µM·h; half-life [1]: 3.27 h; bioavailability [1]: 59%
39 | 10 to 100 | CC(C)Oc1ccc(-c2nc(-c3cccc4c3CC3CC(=O)N(CC(=O)N(C)C)C43)no2)cc1C#N (stereo not shown) [Example 15] | –
40 | < 10 | CC(C)Oc1ccc(-c2nc(-c3cccc4c3CC3CC(=O)N(CCO)C43)no2)cc1Br (stereo not shown) [Example 25] | –
41 | < 10 | CC(C)Oc1ccc(-c2nc(-c3cccc4c3CC3CC(=O)N(CCO)C43)no2)cc1Cl (stereo not shown) [Example 26] | clearance [1]: 7.5 mL/min/kg; AUC [1]: 4.35 µM·h; half-life [1]: 26.7 h; bioavailability [1]: 88.2%
42 | < 10 | CC(C)Oc1ccc(-c2nc(-c3cccc4c3CC3CC(=O)N(CCO)C43)no2)cc1C(F)F (stereo not shown) [Example 27] | clearance [1]: 8.86 mL/min/kg; AUC [1]: 4.78 µM·h; half-life [1]: 21.2 h; bioavailability [1]: 92.6%
43 | 10 to 100 | CC(C)Oc1ccc(-c2nc(-c3cccc4c3CC3CC(=O)N(CCO)C43)no2)cc1 (stereo not shown) [Example 39] | –
44 | < 10 | CC(C)Oc1ccc(-c2nc(-c3cccc4c3CC3CC(=O)N(CCO)C43)no2)cc1OC(F)F (stereo not shown) [Example 40] | clearance [1]: 14.1 mL/min/kg; AUC [1]: 0.444 µM·h; half-life [1]: 10.7 h; bioavailability [1]: 82.3%
45 | 10 to 100 | CC(C)Oc1ccc(-c2nc(-c3cccc4c3CC3CC(=O)N(CCO)C43)no2)cc1S(C)(=O)=O (stereo not shown) [Example 43] | –
46 | 10 to 100 | COc1cc(-c2nc(-c3cccc4c3CC3CC(=O)N(CCO)C43)no2)cc(C2CCCC2)n1 (stereo not shown) [Example 44] | –
47 | < 10 | CC(C)Oc1ccc(-c2nc(-c3cccc4c3CC3CCC(=O)N(CCO)C43)no2)cc1C#N (stereo not shown) [Example 45] | –
48 | < 10 | CC(C)Oc1ccc(-c2nc(-c3cccc4c3CCC3CC(=O)N(CCO)C43)no2)cc1C#N (stereo not shown) [Example 46] | –
49 | < 10 | CC(C)Oc1ccc(-c2nc(-c3cccc4c3CC3CC(=O)N(CCOS(=O)(=O)O)[C@H]43)no2)cc1C#N (stereo partly shown) [Example 47] | –
50 | 10 to 100 | CC(C)Oc1ccc(-c2nc(-c3cccc4c3CC3CCN(CCO)C43)no2)cc1C#N (stereo not shown) [Example 49] | –
51 | < 10 | CC(C)Oc1ccc(-c2nnc(-c3cccc4c3C[C@@H]3CC(=O)N(CCO)[C@H]43)o2)cc1C#N [Example 51] | –
52 | < 10 | CC(C)Oc1ccc(-c2nc(-c3cccc4c3CC3CCN(CC(=O)O)C43)no2)cc1C#N (stereo not shown) [Example 52] | –
53 | < 10 | CC(C)Oc1ccc(-c2nc(-c3cccc4c3C[C@@H]3CCN(C5CC(C(=O)O)C5)C43)no2)cc1C#N (stereo partly shown) [Example 53] | –
54 | 10 to 100 | CC(C)Oc1ccc(-c2nc(-c3cccc4c3CC3CC(=O)N(CCO)[C@H]43)n[nH]2)cc1C#N (stereo partly shown) [Example 54] | –
55 | < 10 | CC(C)Oc1ccc(-c2nc(-c3cccc4c3C[C@@H]3CC(=O)N([C@H](C)CO)C43)no2)cc1C#N (stereo partly shown) [Example 56] | clearance [1]: 14.6 mL/min/kg; AUC [1]: 3.32 µM·h; half-life [1]: 1.63 h; bioavailability [1]: 66.7%

Source: US20210300908A1, “S1P1 AGONIST AND APPLICATION THEREOF” (SHIJIAZHUANG SAGACITY SRUG SEVELOPMENT CO., LTD., priority 2016, published 2021)
